Results on two compounds are retold here after patent publication US10980239B2, “Decontamination solution and its use for denaturation, modification, degradation, solubilisation and removal of proteins, nucleic acid molecules and microorganisms” (MULTIBIND BIOTEC GMBH, priority 2005, dated 2021).

What all share (type): cell-based
For one experiment, the system named is Bacillus subtilis. As to the kind of experiment: Test for the anti-microbial action, colony count after plating. The following applies: 10^6 cells in 50 μl mixed 1:1 with solution, 2 minutes incubation, plated, 1-3 days at 37° C. The procedure:
(§1) Freshly grown cultures of the listed microorganisms were adjusted to a cell number of 10^6 in a 50 μl volume and mixed in a ratio of 1:1 with 50 μl of water, 70% ethanol or the three component system (100 mM ascorbic acid, 10 mM FeCl3 and 0.5% SDS). After an incubation time of 2 minutes the 100 μl samples containing the microorganisms were plated onto the respective growth media. After an incubation period of 1-3 days at 28° C. (Saccharomyces cerevisiae and Candida parapsilosis) or 37° C. (Escherichia coli and Bacillus subtilis) the number of grown colonies was determined.

A further experiment concerns Escherichia coli. Described as above. The following applies: 10^6 cells in 50 μl mixed 1:1 with solution, 2 minutes incubation, plated, 1-3 days at 37° C. The procedure:
as §1

For a further experiment, the system named is Saccharomyces cerevisiae. Described as above. The following applies: 10^6 cells in 50 μl mixed 1:1 with solution, 2 minutes incubation, plated, 1-3 days at 28° C. The procedure:
as §1

For experiment [1], the system named is listed microorganisms (Escherichia coli, Bacillus subtilis, Saccharomyces cerevisiae, Candida parapsilosis). As to the kind of experiment: Test for the anti-microbial action, summary for all listed microorganisms. The following applies: 10^6 cells mixed 1:1 with solution, 2 minutes incubation, plated, 1-3 days. How it is done: as §1
Experiment [2] deals with recombinant Escherichia coli strain with an extra-chromosomal plasmid (YEp351). As to the kind of experiment: Degradation of genomic DNA and extra-chromosomal genetic material inside microorganisms (FIG. 8, gel electrophoresis). Conditions: 5 μl E. coli suspension, lysozyme 5 minutes, then 5 μl solution for 5 minutes. The procedure:
A recombinant Escherichia coli strain with an extra-chromosomal plasmid (YEp351) was grown over night in LB, amp medium. Aliquots of 5 μl from the E. coli suspension were treated with 5 μl lysozyme solution (1 mg/ml) for 5 minutes and subsequently incubated with 5 μl of the listed solutions (1-5) for additional 5 minutes. After addition of bromphenol blue the samples were loaded into the gel slots and separated by electrophoresis of the DNA molecules.
(M: Marker 1 Kb Ladder; C: Control with H2O; 1: 70% Ethanol; 2: 0.5% Bacillozid™; 3: 0.5% SDS; 4: 0.5% Na-Azide+0.5% SDS; 5: 100 mM vitamin C+10 mM FeCl3+0.5% SDS; C: Control: 5 μl sterile H2O)

In the case of `CCO` [70% ethanol, ethanol], the “number of grown colonies” value with Bacillus subtilis, in the experiment on Escherichia coli and with Saccharomyces cerevisiae was 0 each time. Also, the “living cell colonies, all listed microorganisms” value in experiment [1] is listed as “did not show any living cell colony”. In addition, the “effect on cells and DNA molecules seen in the gel” value in experiment [2] was “precipitation of the lysate and the DNA”.

`CCCCCCCCCCCCOS(=O)(=O)[O-].[Na+]` [sample 3, Sodiumdodecylsulfate]: in experiment [2], the “effect on cells and DNA molecules seen in the gel” value is “lysis of the cells is observed”.
